Where “and” joins values, the source holds several entries; their conditions need not be identical. Equal entries are not always repeated.
Key:
mouse EAE model = assay: Experimental Autoimmune Encephalomyelitis (EAE) model, semi-therapeutic, 28 day; assay type: in vivo; details: for End % body weight +/− SD: Day 27 relative to Day −1; for End score +/− SD: Day 28; for Mean day of EAE onset: after immunization, mice which developed EAE; for Inflammatory foci +/− SD: per spinal cord section; for Demyelination (LFB) +/− SD: score per section
Procedure: EAE was induced in 60 mice using Hooke Kit™ MOG35-55/CFA Emulsion PTX (Hooke Laboratories, Lawrence Mass.), catalog number EK-0110, lot number 0104, per manufacturer's recommended protocol, except that pertussis toxin was diluted with phosphate buffered saline to achieve 1.4× and 1.3× solution (starting from the 1.5× solution in the kit). This was done to optimize disease severity for this particular study.
Mice were injected subcutaneously, at two sites in the back, with the emulsion component of the kit (containing MOG35-55). One site of injection was in the area of the upper back, approximately 1 cm caudal of the neck line. The second site was in the area of the lower back, approximately 2 cm cranial of the base of the tail. Injection volume was 0.1 mL at each site. Within 2 hours of the injection of emulsion, and then again 24 hours after the injection of emulsion, the pertussis toxin component of the kit was administered intraperitoneally. Volume of each injection was 0.1 mL.
Vehicle for Group 2 (FTY720) was water and 2% ethanol. Vehicle for all other groups was water, 0.5% CMC (low viscosity), and 0.05% Tween80. Mice were dosed at the same time every day, +/−1 hour. The last day of dosing was Day 27 after immunization.
Readouts were EAE scores and changes in body weight. Mice were scored daily from Day 7 to Day 28, and body weights were measured three times/week (Monday, Wednesday and Friday), starting on Day −1.
EAE was scored on scale 0 to 5: • 0 No obvious changes in motor functions of the mouse in comparison to non-immunized mice. When picked up by the tail, the tail has tension and is erect. Hind legs are usually spread apart. When the mouse is walking, there is no gait or head tilting. • 1 Limp tail. When the mouse is picked up by the tail, instead of being erect, the whole tail drapes over finger. • 2 Limp tail and weakness of hind legs. When mouse is picked up by tail, legs are not spread apart, but held closer together. When the mouse is observed walking, it has a clearly apparent wobbly walk. • 3 Limp tail and complete paralysis of hind legs (most common); or limp tail with paralysis of one front and one hind leg; or all of: severe head tilting, walking only along the edges of the cage, pushing against the cage wall, and spinning when picked up by the tail. • 4 Limp tail, complete hind leg and partial front leg paralysis. Mouse is minimally moving around the cage but appears alert and feeding Usually, euthanasia is recommended after the mouse scores level 4 for 2 days. When the mouse is euthanized because of severe paralysis, score of 5 is entered for that mouse for the rest of the experiment. • 5 Complete hind and complete front leg paralysis, no movement around the cage; or mouse is spontaneously rolling in the cage; or mouse is found dead due to paralysis.
At the end of the study 3 luxol fast blue (LFB) stained sections and 3 H&E sections, from lumbar, thoracic, and cervical spinal cord of all mice in Groups 1, 2, 3, and 6 and the 3 naïve mice were prepared and analyzed.
Inflammatory foci were counted in each H&E stained section. Each group of approximately 20 cells was counted as one focus. Foci larger than 20 cells were counted based on an estimate of how many foci of 20 cells were present.
The demyelination score represents an estimate of demyelinated area for each section as follows. For LFB stained slides, the demyelinated area was estimated based on intensity of blue staining of myelin. For H&E stained sections, demyelinated area was estimated by looking for interruption of normal structure—pallor and vacuolation consistent with edema and demyelination, and dilated axons. • 0—no demyelination (less than 5% demyelinated area) • 1—5 to 20% demyelinated area • 2—20 to 40% demyelinated area • 3—40 to 60% demyelinated area • 4—60 to 80% demyelinated area • 5—80 to 100% demyelinated area.
The number of apoptotic cells in each of the three H&E sections was determined.

[1] = tested on: TL2/TLR6 (PAM2CSK4 induced cytokines); assay: PAM2CSK4 induced cytokine production in PBMCs; assay type: cell-based, human
Procedure: These experiments were conducted using PBMCs.

C[C@H](Nc1ncnc2[nH]cnc12)c1cc2cccc(Cl)c2c(=O)n1-c1ccccc1 [Compound 292]
Apoptotic cells, average per section+/−SD (mouse EAE model; 0.3 mg/kg QD p.o.): 1.7+/−0.9
Demyelination score (H&E sections), average per section+/−SD (mouse EAE model; 0.3 mg/kg QD p.o.): 1.5+/−0.5
MMS +/− SD (mouse EAE model; 0.3 mg/kg QD p.o.): 2.50+/−0.85
Median Day of Onset (mouse EAE model; 0.3 mg/kg QD p.o.): 11.5 days
End % body weight +/− SD (mouse EAE model; 0.3 mg/kg QD p.o.): 96.1+/−11.8%
End score +/− SD (mouse EAE model; 0.3 mg/kg QD p.o.): 1.60+/−1.02
Mean day of EAE onset (mouse EAE model; 0.3 mg/kg QD p.o.): 11.3 ± 0.4 days
Inflammatory foci +/− SD (mouse EAE model; 0.3 mg/kg QD p.o.): 2.9+/−1.5
Demyelination (LFB) +/− SD (mouse EAE model; 0.3 mg/kg QD p.o.): 1.2+/−0.7
MMS +/− SD (mouse EAE model; 1 mg/kg QD p.o.): 2.70+/−0.72
Median Day of Onset (mouse EAE model; 1 mg/kg QD p.o.): 11 days and 11.0 days
End % body weight +/− SD (mouse EAE model; 1 mg/kg QD p.o.): 99.0+/−7.4%
End score +/− SD (mouse EAE model; 1 mg/kg QD p.o.): 1.40+/−0.81
Mean day of EAE onset (mouse EAE model; 1 mg/kg QD p.o.): 12.5 ± 1.0 days
MMS +/− SD (mouse EAE model; 3 mg/kg QD p.o.): 3.40+/−0.21
Median Day of Onset (mouse EAE model; 3 mg/kg QD p.o.): 12 days and 12.0 days
End % body weight +/− SD (mouse EAE model; 3 mg/kg QD p.o.): 87.7+/−6.4%
End score +/− SD (mouse EAE model; 3 mg/kg QD p.o.): 2.65+/−0.67
Mean day of EAE onset (mouse EAE model; 3 mg/kg QD p.o.): 12.1 ± 0.7 days
Apoptotic cells, average per section+/−SD (mouse EAE model; 10 mg/kg QD p.o.): 2.2+/−1.0
Demyelination score (H&E sections), average per section+/−SD (mouse EAE model; 10 mg/kg QD p.o.): 1.9+/−0.8
MMS +/− SD (mouse EAE model; 10 mg/kg QD p.o.): 2.55+/−0.76
Median Day of Onset (mouse EAE model; 10 mg/kg QD p.o.): 14 days and 14.0 days
End % body weight +/− SD (mouse EAE model; 10 mg/kg QD p.o.): 95.6+/−8.5%
End score +/− SD (mouse EAE model; 10 mg/kg QD p.o.): 1.65+/−0.85
Mean day of EAE onset (mouse EAE model; 10 mg/kg QD p.o.): 14.4 ± 1.5 days
Inflammatory foci +/− SD (mouse EAE model; 10 mg/kg QD p.o.): 5.2+/−3.2
Demyelination (LFB) +/− SD (mouse EAE model; 10 mg/kg QD p.o.): 1.6+/−0.8
PAM2CSK4 induced IL-1 production [1]: Inhibited
PAM2CSK4 induced IL-6 production [1]: Inhibited
PAM2CSK4 induced IL-8 production [1]: Inhibited
PAM2CSK4 induced TNF-α production [1]: Inhibited

Source: patent publication US9527847B2, “Treatment of lupus, fibrotic conditions, and inflammatory myopathies and other disorders using PI3 kinase inhibitors” (INFINITY PHARMACEUTICALS, INC., priority 2012, dated 2016)
